Source: article PMC5613635 (Biochemistry and Biophysics Reports, 2016)

Molecular target: T1, reconstituted TmAHAS (MI + MS) (Thermotoga maritima, UniProt Q9WZ18)
T1 sequence (Q9WZ18 1-584): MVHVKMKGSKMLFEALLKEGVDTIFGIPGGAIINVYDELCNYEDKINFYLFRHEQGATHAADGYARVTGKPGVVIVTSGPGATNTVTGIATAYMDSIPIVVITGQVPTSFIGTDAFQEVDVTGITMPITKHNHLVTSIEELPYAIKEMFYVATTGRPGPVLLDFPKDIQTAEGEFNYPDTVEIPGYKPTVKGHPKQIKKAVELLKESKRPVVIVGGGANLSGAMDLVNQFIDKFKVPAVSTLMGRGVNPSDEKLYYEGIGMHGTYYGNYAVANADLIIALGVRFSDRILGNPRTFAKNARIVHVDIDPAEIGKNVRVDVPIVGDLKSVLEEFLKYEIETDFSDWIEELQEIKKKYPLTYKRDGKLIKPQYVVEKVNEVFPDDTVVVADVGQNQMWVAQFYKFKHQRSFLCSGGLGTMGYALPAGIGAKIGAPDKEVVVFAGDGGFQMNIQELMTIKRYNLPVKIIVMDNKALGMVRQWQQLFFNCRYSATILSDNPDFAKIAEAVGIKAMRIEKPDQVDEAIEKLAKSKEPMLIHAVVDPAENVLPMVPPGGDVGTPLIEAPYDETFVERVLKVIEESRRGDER
T1 sequence (Q9WZ19 1-171 partner): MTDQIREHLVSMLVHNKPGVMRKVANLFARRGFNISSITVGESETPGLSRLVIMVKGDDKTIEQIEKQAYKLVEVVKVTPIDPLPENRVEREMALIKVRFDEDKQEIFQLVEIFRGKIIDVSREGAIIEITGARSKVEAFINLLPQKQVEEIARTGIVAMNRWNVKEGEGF
Assay: acetaldehyde
Format: biochemical
Settings: reconstituted catalytic and regulatory subunits; 80 °C, anaerobic

Which “acetaldehyde (PDC) and acetolactate (AHAS) production from pyruvate” value does the source give for `CC(=O)C(=O)O` [pyruvate] here?
Its value is “The reconstitution of the enzyme TmAHAS resulted in considerable and reproducible increase of both PDC”.
